In general, ED50 refers to the dose that gives a 50% effect, or the effect in half of the subjects. The term EC50 denotes the concentration needed to bring the measured effect to its halfway point.

Experimental findings from patent US8993593B2, “N-(4-(6-fluoro-3,4-dihydroisoquinolin-2(1H)-yl)-2,6-dimethylphenyl)-3,3-dimethylbutanamide as potassium channel modulators” (Valeant Pharmaceuticals International, priority 2006, dated 2015) are described below.

In experiment [1] the test system is rat MES model of epilepsy. Nature of the experiment: Maximal electroshock seizure (MES) test, rat. It is filed as in vivo. As to conditions: po; rat MES model, dosed orally 1 hour prior to testing; read-out: ED50, inhibition of seizures. The source says: The MES testing protocol is based on procedures established at the National Institute of Neurological Disorders and Stroke in conjunction with the Anticonvulsant Screening Program (ASP) at the University of Utah (White, H. S., Woodhead, J. H., Wilcox, K. S., Stables, J. P., Kupferberg, H. J and Wolf, H. H. 2002. “General Principles: Discovery and Preclinical Development of Antiepileptic Drugs,” in Antiepileptic Drugs, 5th Edition, R. H. Levy, ed.; R. H. Mattson, B. S. Meldrum, and E. Perucca. Philadelphia, Lippincott Williams & Wilkins.), The goal of the test rapid identification and characterization of the in vivo anticonvulsant activity of any compounds that have been shown active in PC-12 cellular based Rb^+ efflux assay.
Adult male CF-I albino mice (18-25 g, Charles River Laboratories) are exclusively used for in-house MES screen of compounds. Male Sprague-Dawley albino rats (100-125 g, Charles River Laboratories) are also used to test anticonvulsant compounds. Variability of test outcomes is reduced by using animals of the same sex, age, and weight. Animals are permitted to rest and recover from transit for at least 48 hr prior to experimentation. Animals are used for AED testing only once. In some instances, the animals may be anesthetized prior to blood collection and/or whole brain extraction for pharmacokinetic assay. All animals are maintained and handled as outlined in standard animal care guidelines.
In the experiments, testing compounds are prepared as suspensions in 0.5% methyl cellulose (Sigma, Cat #M0512, Viscosity 4000 cP at 20° C.) in water, regardless of solubility. Dry powder compounds are initially ground with a glass rod in a test tube in several drops of methyl cellulose to create a paste and to break down any large chunks. After several minutes of grinding, the volume of the suspension is increased to the final concentration desired. The suspension is then sonicated using a Branson sonicator model 3510 in a water bath at room temperature for 15 minutes. Compound suspensions are further vortexed prior to animal dosing. In some of the cases, DMSO is used to initially solubilize compounds in small volumes and then this solution is added to the 0.5% methyl cellulose solution, in order to create more even and less aggregated compound suspensions. The final concentration of DMSO is 3.75%, an amount with no apparent toxicity or neuroprotective effects in our usual rotarod and MES tests. Methyl cellulose/DMSO compound suspensions are identically prepared for intraperitoneally (i.p.) to mice or orally (p.o.) to rat dosing.
Initially the animals are weighed with an electronic scale and then marked. Data recording sheets are generated for each compound assessment. Mice or rats are dosed with the compound suspension at 0.01 mL/g of body weight. The typical injection volume range is between 180-250 μl for mice. Compounds are dosed by i.p. to mice using a 25 or 22 gauge needle, depending on the viscosity of the suspension. Rats are p.o. dosed using a flexible feeding tube, typically starting at a compound dose of 5 mg/kg.
A Rodent Electroconvulsive Stimulator (Model 200, Hamit-Darvin-Freesh, Snow Canyon Clinic, Ivins, Utah) is used for MES testing. A 60-Hz alternating current (50 mA for mice; 150 mA for rats) is delivered for 0.2 seconds through corneal electrodes to the mice. […] Animals are monitored for hind limb tonic extension as the end point for this test. Current delivery is recorded as a measure of overall seizure-induction potential. […]
A general note: Protection in the maximal electroshock model is a classic sign of anticonvulsant action.

In the next experiment the target is KCNQ2/3 (Homo sapiens, UniProt O43525+O43526). Nature of the experiment: Two-electrode voltage-clamp in Xenopus laevis oocytes, KCNQ2/3. It is filed as cell-based. The procedure:
(§1) Female Xenopus laevis extracted ovaries were purchased from eNASCO (LM00935MX, eNASCO Fort Atkinson, Wis.). […] Approximately 50 nl cRNA (about 50 ng) was injected for KCNQ1, KCNQ4, and KCNQ5 using a Nanoject microinjector (Drummond, Broomall, Pa., USA). For co-expression of KCNQ2 and KCNQ3 and of KCNQ1 and KCNE1, cRNA's were mixed in equal molar ratios before injection of approximately 50 nl. […] Oocytes were kept in Culture Barth solution at 19° C. which was changed daily and currents were recorded after 3 to 5 days.
(§2) KCNQ channel currents expressed in Xenopus laevis oocytes were recorded using a two-electrode voltage-clamp. […] The oocytes were placed in custom built perfusion chambers connected to a continuous flow system and impaled with a current electrode and a voltage-clamp electrode pulled from borosilicate glass on a Flaming/Brown Micropipette Puller (Sutter Instruments Co, Novato, Calif., USA).
(§3) All compounds were dissolved in DMSO to obtain concentrated stock solutions. On the day of electrophysiological experiments the stock solutions were thawed and diluted in recording solution to their final concentrations. The final DMSO concentration never exceeded 0.1%. Compound delivery was performed using a custom built multi-barrel apparatus connected to the flow system.
(§4) Data were acquired by means of an Axograph X software (Axograph Scientific, Sydney, AU) and analyzed using Graph Pad Prism (GraphPad Software Inc., CA, USA). […]
(§5) After steady channel current was recorded in the presence of Retigabine at its EC75, recorded oocyte was washed with the recording solution until its steady current returned to its normal level without the presence of any drugs. Then the channel steady current was recorded in the presence of the test compound at its EC75. The percent efficacy was then expressed as: % efficacy=(C2/C 1)×100 where C2 is the recorded steady current in the presence of follow-on compound at its EC75 and C1 is the recorded steady current in the presence of Retigabine at its EC75.

For another experiment, the target named is KCNQ5 (Homo sapiens, UniProt Q9NR82). Nature of the experiment: Two-electrode voltage-clamp in Xenopus laevis oocytes, KCNQ5. It is filed as cell-based. The procedure: as §1, §2, §3, §4, §5
For the next experiment, the target named is hERG (Homo sapiens, UniProt Q12809). Nature of the experiment: cell-based.
hERG, sequence (Q12809 whole entry): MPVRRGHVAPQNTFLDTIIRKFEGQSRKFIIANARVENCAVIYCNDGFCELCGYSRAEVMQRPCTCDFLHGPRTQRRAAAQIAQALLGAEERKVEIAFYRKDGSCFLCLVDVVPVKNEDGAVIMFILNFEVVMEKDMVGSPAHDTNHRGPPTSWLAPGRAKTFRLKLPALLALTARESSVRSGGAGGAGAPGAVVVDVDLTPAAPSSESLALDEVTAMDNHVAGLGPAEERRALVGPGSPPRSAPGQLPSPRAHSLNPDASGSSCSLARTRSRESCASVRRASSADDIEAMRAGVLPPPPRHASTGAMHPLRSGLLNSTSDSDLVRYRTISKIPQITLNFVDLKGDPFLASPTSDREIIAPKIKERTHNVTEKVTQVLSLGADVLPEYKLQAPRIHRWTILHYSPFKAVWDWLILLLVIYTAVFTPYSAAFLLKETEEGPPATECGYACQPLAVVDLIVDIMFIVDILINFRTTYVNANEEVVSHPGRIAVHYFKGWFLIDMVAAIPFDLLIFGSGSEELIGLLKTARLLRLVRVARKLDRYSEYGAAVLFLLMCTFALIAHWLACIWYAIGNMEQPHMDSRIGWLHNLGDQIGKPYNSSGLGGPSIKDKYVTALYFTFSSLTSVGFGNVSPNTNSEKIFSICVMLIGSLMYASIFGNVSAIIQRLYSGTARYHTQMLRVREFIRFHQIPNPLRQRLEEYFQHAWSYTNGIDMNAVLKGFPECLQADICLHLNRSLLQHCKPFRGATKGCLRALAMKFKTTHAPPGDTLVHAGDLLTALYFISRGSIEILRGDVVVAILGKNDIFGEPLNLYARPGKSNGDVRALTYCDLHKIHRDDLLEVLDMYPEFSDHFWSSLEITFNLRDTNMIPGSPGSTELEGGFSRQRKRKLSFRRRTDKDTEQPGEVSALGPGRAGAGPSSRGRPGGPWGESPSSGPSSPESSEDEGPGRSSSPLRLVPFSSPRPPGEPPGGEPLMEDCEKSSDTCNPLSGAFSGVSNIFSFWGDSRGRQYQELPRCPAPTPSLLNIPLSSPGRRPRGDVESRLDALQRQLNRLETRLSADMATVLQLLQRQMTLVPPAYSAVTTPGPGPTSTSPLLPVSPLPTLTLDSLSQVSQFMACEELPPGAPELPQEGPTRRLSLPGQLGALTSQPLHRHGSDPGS

Take `Cc1cc(N2CCc3cc(F)ccc3C2)cc(C)c1NC(=O)CC(C)(C)C` [compound A, N-[4-(6-fluoro-3,4-dihydro-1H-isoquinolin-2-yl)-2,6-dimethylphenyl]-3,3-dimethyl butanamide]: in experiment [1], the ED50 was 1.1 mg/kg. Besides, the EC50 is 350 nM on KCNQ2/3, 350 nM at KCNQ5 and over 30000 nM at hERG. For the same compound, on KCNQ2/3 (oocyte expression, at EC75), the “KCNQ2/3 Efficacy Relative to Retigabine (%)” value was determined as 143%. Further, the “KCNQ5 Efficacy Relative to Retigabine (%)” value on KCNQ5 (oocyte expression, at EC75) came out at 100%.
